Data published in patent EP4043466B1, “PRC2 INHIBITORS” (Mirati Therapeutics, Inc., priority 2018, dated 2019).

How the values were obtained:
[1] = target: purified human, His-tagged PRC2 complex (Homo sapiens, UniProt O75530+Q15910); assay: Hot Spot HMT assay: inhibition of PRC2 enzymatic activity (transfer of tritiated methyl from SAM to core histone, filter binding); format: biochemical; settings: Inhibition of PRC2-mediated enzymatic activity; 10 nM PRC2 complex, 0.05 mg/ml core histone H3, 1 uM 3H-SAM, 1 hr at 30°C
Sequence of purified human, His-tagged PRC2 complex (Q15910 whole entry): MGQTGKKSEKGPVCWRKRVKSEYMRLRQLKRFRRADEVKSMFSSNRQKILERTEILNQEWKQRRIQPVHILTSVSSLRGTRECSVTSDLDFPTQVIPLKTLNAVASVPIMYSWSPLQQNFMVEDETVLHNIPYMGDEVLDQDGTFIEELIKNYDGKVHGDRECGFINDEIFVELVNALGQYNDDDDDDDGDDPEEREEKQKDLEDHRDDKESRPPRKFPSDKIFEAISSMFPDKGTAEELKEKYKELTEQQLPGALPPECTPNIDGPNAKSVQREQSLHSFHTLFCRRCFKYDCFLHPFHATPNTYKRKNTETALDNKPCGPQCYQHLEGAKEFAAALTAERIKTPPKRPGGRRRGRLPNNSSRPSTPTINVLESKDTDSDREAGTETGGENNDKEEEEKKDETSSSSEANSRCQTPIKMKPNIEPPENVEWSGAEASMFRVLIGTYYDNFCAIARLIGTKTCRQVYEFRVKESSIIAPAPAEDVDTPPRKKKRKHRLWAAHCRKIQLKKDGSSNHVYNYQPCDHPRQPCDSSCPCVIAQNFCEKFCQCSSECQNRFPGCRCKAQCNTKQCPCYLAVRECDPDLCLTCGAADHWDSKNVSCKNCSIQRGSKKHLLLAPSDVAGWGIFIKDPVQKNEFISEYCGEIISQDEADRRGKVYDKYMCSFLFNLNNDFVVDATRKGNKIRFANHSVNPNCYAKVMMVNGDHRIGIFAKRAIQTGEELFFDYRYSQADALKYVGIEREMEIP
Sequence of purified human, His-tagged PRC2 complex (O75530 whole entry): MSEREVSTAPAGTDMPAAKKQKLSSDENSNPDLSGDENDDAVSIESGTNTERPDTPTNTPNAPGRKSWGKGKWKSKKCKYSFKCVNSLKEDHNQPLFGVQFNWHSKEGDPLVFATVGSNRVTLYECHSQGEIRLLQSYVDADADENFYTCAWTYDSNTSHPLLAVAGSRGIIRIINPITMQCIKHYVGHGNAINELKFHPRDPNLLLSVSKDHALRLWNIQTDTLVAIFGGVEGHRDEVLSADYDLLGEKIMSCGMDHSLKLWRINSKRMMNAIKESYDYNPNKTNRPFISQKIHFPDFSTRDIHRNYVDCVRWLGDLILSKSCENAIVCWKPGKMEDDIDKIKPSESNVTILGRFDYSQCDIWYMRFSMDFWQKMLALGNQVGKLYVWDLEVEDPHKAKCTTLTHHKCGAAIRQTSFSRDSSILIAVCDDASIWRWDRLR
Sequence of purified human, His-tagged PRC2 complex (Q15022 whole entry partner): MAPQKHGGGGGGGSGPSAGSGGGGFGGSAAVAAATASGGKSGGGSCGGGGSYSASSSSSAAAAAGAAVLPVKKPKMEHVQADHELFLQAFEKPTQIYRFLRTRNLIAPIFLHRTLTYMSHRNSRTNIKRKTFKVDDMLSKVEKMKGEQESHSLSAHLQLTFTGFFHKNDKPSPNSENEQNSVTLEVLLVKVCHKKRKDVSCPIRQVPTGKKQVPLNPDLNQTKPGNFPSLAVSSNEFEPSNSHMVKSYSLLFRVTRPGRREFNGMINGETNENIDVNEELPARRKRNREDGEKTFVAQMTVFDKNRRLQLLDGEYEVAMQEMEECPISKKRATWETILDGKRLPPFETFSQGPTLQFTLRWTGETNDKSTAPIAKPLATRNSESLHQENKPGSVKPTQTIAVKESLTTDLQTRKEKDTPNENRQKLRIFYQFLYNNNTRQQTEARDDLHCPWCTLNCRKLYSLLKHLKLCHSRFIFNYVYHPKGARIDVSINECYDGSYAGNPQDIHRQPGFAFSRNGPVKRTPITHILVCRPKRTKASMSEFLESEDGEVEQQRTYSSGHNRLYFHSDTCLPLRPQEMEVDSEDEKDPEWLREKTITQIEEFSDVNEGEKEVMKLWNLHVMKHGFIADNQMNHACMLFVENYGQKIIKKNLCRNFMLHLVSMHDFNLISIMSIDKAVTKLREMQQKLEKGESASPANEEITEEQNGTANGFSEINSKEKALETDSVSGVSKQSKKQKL
Sequence of purified human, His-tagged PRC2 complex (Q6ZN18 whole entry partner): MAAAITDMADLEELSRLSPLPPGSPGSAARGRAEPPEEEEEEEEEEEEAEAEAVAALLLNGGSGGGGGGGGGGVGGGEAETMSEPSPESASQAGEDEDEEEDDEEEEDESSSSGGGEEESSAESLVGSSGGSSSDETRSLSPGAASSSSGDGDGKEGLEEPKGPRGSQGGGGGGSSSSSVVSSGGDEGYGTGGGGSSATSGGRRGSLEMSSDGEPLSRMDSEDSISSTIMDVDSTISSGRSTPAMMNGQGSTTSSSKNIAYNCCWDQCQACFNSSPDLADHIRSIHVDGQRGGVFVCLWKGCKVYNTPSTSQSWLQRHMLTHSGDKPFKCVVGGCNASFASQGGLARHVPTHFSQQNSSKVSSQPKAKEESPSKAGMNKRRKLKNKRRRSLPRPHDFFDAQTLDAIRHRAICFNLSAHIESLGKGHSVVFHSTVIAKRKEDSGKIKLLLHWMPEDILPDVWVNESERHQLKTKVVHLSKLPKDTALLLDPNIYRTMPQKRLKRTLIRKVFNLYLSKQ
Sequence of purified human, His-tagged PRC2 complex (Q09028 whole entry partner): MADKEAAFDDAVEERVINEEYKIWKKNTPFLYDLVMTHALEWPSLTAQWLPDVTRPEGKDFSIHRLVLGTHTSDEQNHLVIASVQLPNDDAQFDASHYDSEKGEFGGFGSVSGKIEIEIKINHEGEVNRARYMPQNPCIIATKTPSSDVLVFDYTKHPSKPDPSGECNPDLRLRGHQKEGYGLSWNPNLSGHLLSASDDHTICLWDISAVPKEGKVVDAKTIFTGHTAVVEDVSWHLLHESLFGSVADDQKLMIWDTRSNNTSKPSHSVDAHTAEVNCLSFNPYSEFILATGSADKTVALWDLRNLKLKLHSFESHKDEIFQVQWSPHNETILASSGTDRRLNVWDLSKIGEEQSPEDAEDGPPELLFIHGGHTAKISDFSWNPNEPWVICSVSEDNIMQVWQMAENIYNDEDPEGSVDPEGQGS
In short: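 Serial compound dilutions starting at 1.0 µM were pre-incubated 20 min at 30°C with 10 nM complex (His-EZH2, Flag-EED, His-SUZ12, His-AEBP2, His-RbAp48) and 0.05 mg/ml core H3. Reaction ran 1 hr at 30°C after adding 1 uM [3H]-SAM; scintillation counting followed filtration.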

[2] = tested on: PRC2-mediated histone H3 methylation; assay: Tri-Methyl Histone H3 (Lys 27) Sandwich ELISA in Pfeiffer cells: inhibition of PRC2-mediated histone H3 methylation; format: cell-based, human; settings: Inhibition of EZH2-mediated histone H3 trimethylation, Pfeiffer cells (EZH2 A677G), 96 hours incubation
From the text: The Pfeiffer cell line was established from a […] from a patient having metastatic diffuse large B-cell lymphoma (DLBCL). This cell line expresses a mutant form of the EZH2 enzyme (A677G) that results in enhanced EZH2 activity leading to increased methylation of histone H3 Lys27. Increased trimethylation of histone H3 Lys27 is believed to be implicated in tumorgenesis and poor clinical prognosis in lymphomas (McCabe et al., (2012) Nature 492:108-112).
Inhibition of PRC2-mediated histone H3 methylation by compounds of Formula (I) was measured by ELISA using a Tri-Methyl Histone H3 (Lys 27) Sandwich ELISA Kit (Cell Signaling Tech #7866C) in accordance with the manufacturer's instructions. Briefly, Pfeiffer cells were cultured in RPMI medium supplemented with 10% fetal bovine serum and 1% penicillin and 1% streptomycin in 96 well culture plates at 37°C to a density of 8000 cells/90µl/well and the cells were harvested. A series of 3-fold serial dilutions of each test compound of Formula (I) were prepared in RPMI medium and added to the cells at final concentrations ranging from 1µM to 0.15 nM. The plates were incubated at 37°C for 96 hours.
After incubation, the cells were pelleted by centrifugation in a pre-cooled 4°C rotor at 1, 100 rpm for 10 min and the supernatant was removed by aspiration. The cell pellet was resuspended in 55µl of Lysis Buffer (0.4M HCl) and incubated on ice with periodic shaking for 30 minutes. The lysed cells were subjected to centrifugation at 4, 200 rpm for 10 min at 4°C and the supernatant containing acid-soluble proteins was collected and the remainder discarded. The acid-soluble proteins were brought to a neutral pH by the addition of 20 µl of Neutralization Buffer (1 M Sodium phosphate, dibasic (pH 12.5), 2.5 mM DTT and 1 mM PMSF) and the neutralized lysates were analyzed by ELISA.
A 65 µl aliquot of each cell lysate was added to a well of a microwell strip, the microwells were sealed using tape and incubated either at 37°C for two hours or at 4°C overnight. After incubation, the tape was removed at the microwells were washed four times using 200 µl of 1X Wash Buffer. To each washed microwell, a 100 µl aliquot of an antitrimethyl histone H3 Lys27 Detection Antibody solution was added and the microwells were incubated at 37°C for one hour. The Detection Antibody solution was removed by aspiration and the wells were washed four times each using 200 µl of 1X Wash Buffer.
A 100 µl aliquot of an HRP-linked secondary antibody was added to each well, the wells were sealed with tape and incubated at 37°C for 30 min. The HRP-linked secondary antibody solution was removed by aspiration and the wells were washed four times using 200 µl of 1X Wash Buffer. A 100 µl aliquot of a TMB substrate was added to each well, the wells were sealed with tape and incubated at 37°C for 10 min or 25°C for 30 min. The reaction was stopped by the addition of 100 µl aliquot of a STOP solution and the plate was shaken briefly. The degree of histone H3 trimethylation was determined using a spectrophotometric readout by measuring the absorbance at 450 nm and then calculating the amount of trimethylated histone H3. A = ≤100 nM; B = >100 nM - ≤500 nM; C = >500 nM and N.D. = not determined.

[3] = tested on: Karpas 422 cells; assay: Karpas 422 cell viability, CTG (Cell Titre Glo) assay; format: cell-based, human; settings: Inhibition of proliferation of Karpas 422 cells (EZH2 Y641N), viability measured Day 4, Day 7 or Day 11, time point of the tabulated values not stated
In short: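 CellTiter-Glo viability IC50s taken at Day 4, Day 7 and Day 11 of continuous compound exposure (3-fold series, 10µM top, 1.5nM lowest) in RPMI/20% FBS at 37 °C. Y641N-mutant EZH2 lymphoma line seeded at 1000 cells per well; medium and compound replaced on Day 7 for Day 11 read.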

Row | Molecule | IC50 [1] | IC50 ([2]; Homo sapiens) | IC50 ([3]; Homo sapiens) | IC50 [2] | IC50 [3]
1 | Cc1cc(CN(C)C)ccc1-c1cnc(NCc2c(F)ccc3c2CCO3)n2cc(C#N)nc12 [Example 32, 8-(4-((dimethylamino)methyl)-2-methylphenyl)-5-(((5-fluoro-2,3-dihydrobenzofuran-4-yl)methyl)amino)imidazo[1,2-c]pyrimidine-2-carbonitrile] | 100 to 500 nM | ≤ 100 nM | ≤ 250 nM |  | 
2 | COC1CN(Cc2ccc(-c3cnc(NCc4c(F)ccc5c4CCO5)n4cc(C#N)nc34)cc2)C1 [Example 50, 5-(((5-fluoro-2,3-dihydrobenzofuran-4-yl)methyl)amino)-8-(4-((3-methoxyazetidin-1-yl)methyl)phenyl)imidazo[1,2-c]pyrimidine-2-carbonitrile] | < 100 nM | 100 to 500 nM | ≤ 250 nM |  | 
3 | Cc1cc(-c2cnc(NCc3c(F)ccc4c3CCO4)n3cc(C(N)=O)nc23)n(C)n1 [Example 11, 8-(1,3-dimethyl-1H-pyrazol-5-yl)-5-(((5-fluoro-2,3-dihydrobenzofuran-4-yl)methyl)amino)imidazo[1,2-c]pyrimidine-2-carboxamide] | < 100 nM | ≤ 100 nM | ≤ 250 nM |  | 
4 | N#Cc1cn2c(NCc3c(F)ccc4c3CCO4)ncc(-c3ccn(CC4CCCO4)n3)c2n1 (centres unmarked) [Example 153, 5-(((5-fluoro-2,3-dihydrobenzofuran-4-yl)methyl)amino)-8-(1-((tetrahydrofuran-2-yl)methyl)-1H-pyrazol-3-yl)imidazo[1,2-c]pyrimidine-2-carbonitrile] | 100 to 500 nM | 100 to 500 nM | 250 to 500 nM |  | 
5 | CN(C)CCc1ccc(-c2cnc(NCc3c(F)ccc4c3CCO4)n3cc(C#N)nc23)cc1 [Example 163, 8-(4-(2-(dimethylamino)ethyl)phenyl)-5-(((5-fluoro-2,3-dihydrobenzofuran-4-yl)methyl)amino)imidazo[1,2-c]pyrimidine-2-carbonitrile] | < 100 nM | 100 to 500 nM | ≤ 250 nM |  | 
6 | CN(C)C(=O)c1ccc(-c2cnc(NCc3c(F)ccc4c3CCO4)n3cc(C#N)nc23)cc1F [Example 36, 4-(2-cyano-5-(((5-fluoro-2,3-dihydrobenzofuran-4-yl)methyl)amino)imidazo[1,2-c]pyrimidin-8-yl)-2-fluoro-N,N-dimethylbenzamide] | < 100 nM | ≤ 100 nM | ≤ 250 nM |  | 
7 | 8-(4-((dimethylamino)methyl)phenyl)-5-(((5-fluoro-2,3-dihydrobenzofuran-4-yl)methyl-d2)amino)imidazo[1,2-c]pyrimidine-2-carbonitrile [Example 165] | < 100 nM |  |  | 100 to 500 nM | ≤ 250 nM
8 | CN(C)Cc1ccc(-c2cnc(NCc3c(F)ccc4c3CCO4)n3cc(C#N)nc23)c(F)c1 [Example 61, 8-(4-((dimethylamino)methyl)-2-fluorophenyl)-5-(((5-fluoro-2,3-dihydrobenzofuran-4-yl)methyl)amino)imidazo[1,2-c]pyrimidine-2-carbonitrile] | < 100 nM | ≤ 100 nM | ≤ 250 nM |  | 
9 | N#Cc1cn2c(NCc3c(F)ccc4c3CCO4)ncc(-c3ccc(CN4CCCC4)cc3)c2n1 [Example 74, 5-(((5-fluoro-2,3-dihydrobenzofuran-4-yl)methyl)amino)-8-(4-(pyrrolidin-1 - ylmethyl)phenyl)imidazo[1,2-c]pyrimidine-2-carbonitrile] | < 100 nM | ≤ 100 nM | ≤ 250 nM |  | 
10 | 5-(((5-fluoro-2,3-dihydrobenzofuran-4-yl)methyl)amino)-8-(2-methyl-6-morpholinopyridin-3-yl)imidazo[1,2-c]pyrimidine-2-carbonitrile [Example 56] | < 100 nM |  |  | 100 to 500 nM | ≤ 250 nM
11 | Cc1cc(C2CCCN2)ccc1-c1cnc(NCc2c(F)ccc3c2CCO3)n2cc(C#N)nc12 (single isomer, unassigned) [Example 213, 5-(((5-fluoro-2,3-dihydrobenzofuran-4-yl)methyl)amino)-8-(2-methyl-4-(pyrrolidin-2-yl)phenyl)imidazo[1,2-c]pyrimidine-2-carbonitrile] |  | 100 to 500 nM | ≤ 250 nM |  | 

Now from value to molecule:

Row | IC50 [1] | IC50 ([2]; Homo sapiens) | IC50 ([3]; Homo sapiens) | IC50 [2] | IC50 [3] | Molecule
12 | 100 to 500 nM | 100 to 500 nM | ≤ 250 nM |  |  | CN(C)CCOc1ccc(-c2cnc(NCc3c(F)ccc4c3CCO4)n3cc(C#N)nc23)cc1 [Example 189, 8-(4-(2-(dimethylamino)ethoxy)phenyl)-5-(((5-fluoro-2,3-dihydrobenzofuran-4-yl)methyl)amino)imidazo[1,2-c]pyrimidine-2-carbonitrile]
13 | < 100 nM | 100 to 500 nM | ≤ 250 nM |  |  | CNC(=O)c1ccc(-c2cnc(NCc3c(F)ccc4c3CCO4)n3cc(C#N)nc23)cc1 [Example 186, 4-(2-cyano-5-(((5-fluoro-2,3-dihydrobenzofuran-4-yl)methyl)amino)imidazo[1,2-c]pyrimidin-8-yl)-N-methylbenzamide]
14 | 100 to 500 nM | 100 to 500 nM | 250 to 500 nM |  |  | N#Cc1cn2c(NCc3c(F)ccc4c3CCO4)ncc(-c3ccc4c(c3)CCNC4)c2n1 [Example 203, 5-(((5-fluoro-2,3-dihydrobenzofuran-4-yl)methyl)amino)-8-(1,2,3,4-tetrahydroisoquinolin-6-yl)imidazo[1,2-c]pyrimidine-2-carbonitrile]
15 | < 100 nM | 100 to 500 nM | ≤ 250 nM |  |  | CN1CCOCC1c1ccc(-c2cnc(NCc3c(F)ccc4c3CCO4)n3cc(C#N)nc23)cc1 (centres unmarked) [Example 227, 5-(((5-fluoro-2,3-dihydrobenzofuran-4-yl)methyl)amino)-8-(4-(4-methylmorpholin-3-yl)phenyl)imidazo[1,2-c]pyrimidine-2-carbonitrile]
16 | < 100 nM | ≤ 100 nM | ≤ 250 nM |  |  | Cc1cc(CN(C)C)ncc1-c1cnc(NCc2c(F)ccc3c2CCO3)n2cc(C#N)nc12 [Example 195, 8-(6-((dimethylamino)methyl)-4-methylpyridin-3-yl)-5-(((5-fluoro-2,3-dihydrobenzofuran-4-yl)methyl)amino)imidazo[1,2-c]pyrimidine-2-carbonitrile]
17 | < 100 nM | ≤ 100 nM | ≤ 250 nM |  |  | N#Cc1cn2c(NCc3c(F)ccc4c3CCO4)ncc(-c3ccc(C4CC(=O)N4)cc3)c2n1 (centres unmarked) [Example 222, 5-(((5-fluoro-2,3-dihydrobenzofuran-4-yl)methyl)amino)-8-(4-(4-oxoazetidin-2-yl)phenyl)imidazo[1,2-c]pyrimidine-2-carbonitrile]
18 | < 100 nM | 100 to 500 nM | ≤ 250 nM |  |  | CNC(=O)c1cc(-c2cnc(NCc3c(F)ccc4c3CCO4)n3cc(C#N)nc23)n(C)n1 [Example 208, 5-(2-cyano-5-(((5-fluoro-2,3-dihydrobenzofuran-4-yl)methyl)amino)imidazo[1,2-c]pyrimidin-8-yl)-N, 1-dimethyl-1H-pyrazole-3-carboxamide]
